Reference: PMC6004248 (Clinical cancer research : an official journal of the …, 2018)
“And” between values parts separate entries of the source, which are not always exact repeats. Equal entries are not always repeated. Where two headings read alike, the source gives them in different places.

Experiments:
[1] = system: ALK-positive NSCLC; details: crizotinib-refractory population; cited from earlier work
[2] = cited from earlier work; for patients who experienced diarrhea: in some studies
[3] = system: ALK-positive NSCLC; details: cited from earlier work
[4] = molecular target: wild-type ALK (Homo sapiens, UniProt Q9UM73); experiment: Biochemical kinase assay
Chain of wild-type ALK (Q9UM73 19-1620): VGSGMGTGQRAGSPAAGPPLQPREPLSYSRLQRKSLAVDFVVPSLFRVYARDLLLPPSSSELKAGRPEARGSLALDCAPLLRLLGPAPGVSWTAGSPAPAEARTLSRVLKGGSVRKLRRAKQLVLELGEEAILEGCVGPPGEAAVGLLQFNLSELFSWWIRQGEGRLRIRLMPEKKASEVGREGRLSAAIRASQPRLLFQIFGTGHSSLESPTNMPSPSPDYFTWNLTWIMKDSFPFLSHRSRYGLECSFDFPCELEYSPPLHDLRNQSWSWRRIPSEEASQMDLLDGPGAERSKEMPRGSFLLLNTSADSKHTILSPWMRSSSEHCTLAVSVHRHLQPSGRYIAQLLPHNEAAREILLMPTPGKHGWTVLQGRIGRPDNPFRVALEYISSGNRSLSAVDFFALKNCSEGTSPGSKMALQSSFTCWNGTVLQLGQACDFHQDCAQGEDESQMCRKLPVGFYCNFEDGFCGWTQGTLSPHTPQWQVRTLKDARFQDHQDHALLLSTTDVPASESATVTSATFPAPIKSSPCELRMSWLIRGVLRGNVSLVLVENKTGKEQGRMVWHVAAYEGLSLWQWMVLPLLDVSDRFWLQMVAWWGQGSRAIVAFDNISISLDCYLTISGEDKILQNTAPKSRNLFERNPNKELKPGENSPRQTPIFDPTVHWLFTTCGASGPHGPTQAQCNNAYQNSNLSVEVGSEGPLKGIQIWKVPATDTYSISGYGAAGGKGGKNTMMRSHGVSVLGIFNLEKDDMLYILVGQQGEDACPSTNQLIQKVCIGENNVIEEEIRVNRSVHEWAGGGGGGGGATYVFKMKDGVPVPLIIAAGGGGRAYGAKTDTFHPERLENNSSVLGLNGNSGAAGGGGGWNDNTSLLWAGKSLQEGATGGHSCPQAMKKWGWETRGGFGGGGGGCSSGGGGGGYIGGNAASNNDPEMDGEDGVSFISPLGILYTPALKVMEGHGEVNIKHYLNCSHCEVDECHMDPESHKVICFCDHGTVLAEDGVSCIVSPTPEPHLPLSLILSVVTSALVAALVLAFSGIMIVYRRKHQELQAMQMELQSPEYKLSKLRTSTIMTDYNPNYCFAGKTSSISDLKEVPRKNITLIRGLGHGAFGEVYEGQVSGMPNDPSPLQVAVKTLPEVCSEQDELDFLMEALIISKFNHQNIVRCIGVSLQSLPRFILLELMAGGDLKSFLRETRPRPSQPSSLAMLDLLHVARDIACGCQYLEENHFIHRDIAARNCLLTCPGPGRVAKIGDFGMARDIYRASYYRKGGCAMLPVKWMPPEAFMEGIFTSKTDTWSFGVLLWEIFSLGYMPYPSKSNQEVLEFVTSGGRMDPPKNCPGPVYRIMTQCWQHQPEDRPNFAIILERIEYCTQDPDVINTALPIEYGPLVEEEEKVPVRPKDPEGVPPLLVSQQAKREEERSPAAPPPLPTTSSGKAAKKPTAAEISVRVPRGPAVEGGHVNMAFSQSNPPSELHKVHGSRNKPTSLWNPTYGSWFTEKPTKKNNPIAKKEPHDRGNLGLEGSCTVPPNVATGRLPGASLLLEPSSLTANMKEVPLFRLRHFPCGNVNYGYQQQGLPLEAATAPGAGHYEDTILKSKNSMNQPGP

[5] = molecular target: ALK variants; experiment: Biochemical kinase assay; details: read-out: in vitro IC50s, all evaluated ALK variants; wild-type ALK and 17 ALK variants
[6] = molecular target: ALK F1174 mutant (Homo sapiens, UniProt Q9UM73); experiment: Biochemical kinase assay
Chain of ALK F1174 mutant (Q9UM73 1058-1620, stated change not applied): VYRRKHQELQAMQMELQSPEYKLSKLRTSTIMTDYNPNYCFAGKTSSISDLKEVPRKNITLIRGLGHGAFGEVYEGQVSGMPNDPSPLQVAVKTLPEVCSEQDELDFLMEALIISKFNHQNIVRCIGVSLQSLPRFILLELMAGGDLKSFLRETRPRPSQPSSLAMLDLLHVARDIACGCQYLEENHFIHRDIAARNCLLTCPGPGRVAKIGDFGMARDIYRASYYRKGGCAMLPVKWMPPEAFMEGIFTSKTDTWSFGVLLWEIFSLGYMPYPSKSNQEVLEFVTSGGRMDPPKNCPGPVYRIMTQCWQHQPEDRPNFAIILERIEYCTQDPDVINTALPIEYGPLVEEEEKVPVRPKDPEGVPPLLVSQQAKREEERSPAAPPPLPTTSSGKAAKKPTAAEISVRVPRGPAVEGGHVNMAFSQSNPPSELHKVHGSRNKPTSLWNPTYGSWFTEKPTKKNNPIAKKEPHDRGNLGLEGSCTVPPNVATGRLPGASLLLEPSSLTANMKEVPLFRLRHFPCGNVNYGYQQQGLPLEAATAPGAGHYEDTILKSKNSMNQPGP

[7] = molecular target: ALK C1156Y mutant (Homo sapiens, UniProt Q9UM73, C1156Y); experiment: Biochemical kinase assay
Chain of ALK C1156Y mutant (Q9UM73 19-1620 C1156Y): as the sequence (Q9UM73 19-1620) above, with C1138Y counted along it

[8] = molecular target: ALK L1196M mutant (Homo sapiens, UniProt Q9UM73, L1196M); experiment: Biochemical kinase assay
Chain of ALK L1196M mutant (Q9UM73 19-1620 L1196M): as the sequence (Q9UM73 19-1620) above, with L1178M counted along it

[9] = molecular target: ALK S1206R mutant (Homo sapiens, UniProt Q9UM73, S1206R); experiment: Biochemical kinase assay
Chain of ALK S1206R mutant (Q9UM73 19-1620 S1206R): as the sequence (Q9UM73 19-1620) above, with S1188R counted along it

[10] = molecular target: ALK T1151 mutant (Homo sapiens, UniProt Q9UM73); experiment: Biochemical kinase assay
Chain of ALK T1151 mutant (Q9UM73 1058-1620, change not shown): as the sequence (Q9UM73 1058-1620, stated change not applied) above

[11] = molecular target: TPM3-TRKA (Homo sapiens, UniProt P04629); experiment: Biochemical kinase assay
Chain of TPM3-TRKA (P04629 399-796): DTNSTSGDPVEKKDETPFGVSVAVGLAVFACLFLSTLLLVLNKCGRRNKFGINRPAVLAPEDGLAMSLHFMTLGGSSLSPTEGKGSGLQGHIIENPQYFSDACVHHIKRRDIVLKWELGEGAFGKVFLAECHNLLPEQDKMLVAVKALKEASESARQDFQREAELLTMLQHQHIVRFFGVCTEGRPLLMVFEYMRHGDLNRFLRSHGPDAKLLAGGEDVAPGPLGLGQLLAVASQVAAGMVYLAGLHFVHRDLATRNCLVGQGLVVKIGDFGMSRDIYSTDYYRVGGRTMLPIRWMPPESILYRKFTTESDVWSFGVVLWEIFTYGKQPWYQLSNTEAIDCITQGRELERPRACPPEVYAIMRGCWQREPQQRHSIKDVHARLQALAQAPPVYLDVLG
Chain of TPM3-TRKA (P06753 2-258 partner): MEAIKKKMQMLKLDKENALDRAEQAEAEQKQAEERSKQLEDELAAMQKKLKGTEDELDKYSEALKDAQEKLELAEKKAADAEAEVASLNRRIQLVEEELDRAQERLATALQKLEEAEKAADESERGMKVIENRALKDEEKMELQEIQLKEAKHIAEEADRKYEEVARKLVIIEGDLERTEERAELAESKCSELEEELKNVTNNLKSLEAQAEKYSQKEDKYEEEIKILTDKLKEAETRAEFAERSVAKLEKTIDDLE

[12] = molecular target: TRKC (Homo sapiens, UniProt Q16288); experiment: Biochemical kinase assay
[13] = molecular target: GOPC-ROS1 (Homo sapiens, UniProt P08922); experiment: Biochemical kinase assay
Chain of GOPC-ROS1 (P08922 1881-2347, other chains not shown): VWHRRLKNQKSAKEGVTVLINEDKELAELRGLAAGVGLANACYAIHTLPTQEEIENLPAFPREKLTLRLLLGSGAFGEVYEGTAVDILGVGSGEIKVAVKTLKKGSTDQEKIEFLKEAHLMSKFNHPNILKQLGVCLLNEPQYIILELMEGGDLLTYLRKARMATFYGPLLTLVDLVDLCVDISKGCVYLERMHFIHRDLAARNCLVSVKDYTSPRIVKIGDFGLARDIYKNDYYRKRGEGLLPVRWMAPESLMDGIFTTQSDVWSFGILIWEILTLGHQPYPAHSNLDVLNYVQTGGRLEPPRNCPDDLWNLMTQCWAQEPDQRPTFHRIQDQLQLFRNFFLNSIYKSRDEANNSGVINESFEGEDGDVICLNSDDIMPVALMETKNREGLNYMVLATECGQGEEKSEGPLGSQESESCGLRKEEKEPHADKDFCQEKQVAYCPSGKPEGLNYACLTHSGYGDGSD

[14] = molecular target: EphA2 (Homo sapiens, UniProt P29317); experiment: Biochemical kinase assay
[15] = molecular target: T1, EphA1 (Homo sapiens, UniProt P21709); experiment: Biochemical kinase assay
T1 sequence (P21709 26-976): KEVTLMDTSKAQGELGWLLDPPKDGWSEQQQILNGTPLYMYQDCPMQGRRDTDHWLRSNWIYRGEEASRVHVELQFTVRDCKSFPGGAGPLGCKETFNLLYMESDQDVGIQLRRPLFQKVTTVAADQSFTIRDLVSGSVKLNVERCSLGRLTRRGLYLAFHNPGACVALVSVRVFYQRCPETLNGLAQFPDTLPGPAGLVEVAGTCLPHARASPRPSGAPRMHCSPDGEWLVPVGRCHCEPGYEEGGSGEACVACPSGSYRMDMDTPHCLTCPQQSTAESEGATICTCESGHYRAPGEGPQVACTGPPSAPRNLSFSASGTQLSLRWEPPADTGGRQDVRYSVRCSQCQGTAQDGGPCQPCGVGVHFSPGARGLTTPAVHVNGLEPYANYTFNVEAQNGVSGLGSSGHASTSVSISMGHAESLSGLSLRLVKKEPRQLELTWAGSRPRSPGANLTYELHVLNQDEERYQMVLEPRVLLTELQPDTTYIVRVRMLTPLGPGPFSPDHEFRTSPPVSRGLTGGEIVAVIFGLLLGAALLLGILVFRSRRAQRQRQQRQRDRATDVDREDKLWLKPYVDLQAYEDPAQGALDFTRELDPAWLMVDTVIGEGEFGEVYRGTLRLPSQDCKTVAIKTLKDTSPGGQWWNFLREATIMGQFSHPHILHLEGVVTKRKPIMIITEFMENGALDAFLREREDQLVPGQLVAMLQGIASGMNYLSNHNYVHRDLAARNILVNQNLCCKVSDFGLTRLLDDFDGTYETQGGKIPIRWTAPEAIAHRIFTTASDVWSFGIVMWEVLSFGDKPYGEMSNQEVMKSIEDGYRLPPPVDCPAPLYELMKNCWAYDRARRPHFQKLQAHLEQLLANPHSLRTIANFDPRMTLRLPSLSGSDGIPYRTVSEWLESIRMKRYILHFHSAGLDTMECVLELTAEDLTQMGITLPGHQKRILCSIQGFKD

[16] = molecular target: T2, EphB1 (Homo sapiens, UniProt P54762); experiment: Biochemical kinase assay
T2 sequence (P54762 18-984): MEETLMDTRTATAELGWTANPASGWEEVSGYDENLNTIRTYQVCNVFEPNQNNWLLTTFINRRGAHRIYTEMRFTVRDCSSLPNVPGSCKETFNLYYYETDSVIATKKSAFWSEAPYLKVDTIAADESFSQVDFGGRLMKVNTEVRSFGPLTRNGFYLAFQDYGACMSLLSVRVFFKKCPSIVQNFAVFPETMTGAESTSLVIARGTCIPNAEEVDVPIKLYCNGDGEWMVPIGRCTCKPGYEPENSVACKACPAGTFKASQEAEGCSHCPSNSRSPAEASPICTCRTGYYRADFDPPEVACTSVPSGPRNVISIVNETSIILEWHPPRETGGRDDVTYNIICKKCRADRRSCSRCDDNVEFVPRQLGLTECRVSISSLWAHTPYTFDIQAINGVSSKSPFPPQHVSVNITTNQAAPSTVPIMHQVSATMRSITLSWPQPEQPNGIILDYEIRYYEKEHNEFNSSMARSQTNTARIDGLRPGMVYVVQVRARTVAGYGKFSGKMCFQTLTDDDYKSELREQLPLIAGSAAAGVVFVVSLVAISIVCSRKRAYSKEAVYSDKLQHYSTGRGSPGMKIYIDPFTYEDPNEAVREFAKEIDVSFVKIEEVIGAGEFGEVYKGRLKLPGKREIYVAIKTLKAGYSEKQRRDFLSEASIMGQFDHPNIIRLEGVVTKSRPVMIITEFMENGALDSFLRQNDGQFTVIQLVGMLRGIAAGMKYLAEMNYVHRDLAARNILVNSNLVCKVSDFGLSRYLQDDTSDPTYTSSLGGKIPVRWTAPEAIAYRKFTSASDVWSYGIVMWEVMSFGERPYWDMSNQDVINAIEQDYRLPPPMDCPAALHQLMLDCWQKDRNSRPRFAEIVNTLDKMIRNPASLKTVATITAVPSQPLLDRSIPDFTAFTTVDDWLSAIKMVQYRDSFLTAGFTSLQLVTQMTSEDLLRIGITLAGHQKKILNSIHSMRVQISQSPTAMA

[17] = molecular target: c-MET (Homo sapiens, UniProt P08581); experiment: Biochemical kinase assay
Chain of c-MET (P08581 25-1390): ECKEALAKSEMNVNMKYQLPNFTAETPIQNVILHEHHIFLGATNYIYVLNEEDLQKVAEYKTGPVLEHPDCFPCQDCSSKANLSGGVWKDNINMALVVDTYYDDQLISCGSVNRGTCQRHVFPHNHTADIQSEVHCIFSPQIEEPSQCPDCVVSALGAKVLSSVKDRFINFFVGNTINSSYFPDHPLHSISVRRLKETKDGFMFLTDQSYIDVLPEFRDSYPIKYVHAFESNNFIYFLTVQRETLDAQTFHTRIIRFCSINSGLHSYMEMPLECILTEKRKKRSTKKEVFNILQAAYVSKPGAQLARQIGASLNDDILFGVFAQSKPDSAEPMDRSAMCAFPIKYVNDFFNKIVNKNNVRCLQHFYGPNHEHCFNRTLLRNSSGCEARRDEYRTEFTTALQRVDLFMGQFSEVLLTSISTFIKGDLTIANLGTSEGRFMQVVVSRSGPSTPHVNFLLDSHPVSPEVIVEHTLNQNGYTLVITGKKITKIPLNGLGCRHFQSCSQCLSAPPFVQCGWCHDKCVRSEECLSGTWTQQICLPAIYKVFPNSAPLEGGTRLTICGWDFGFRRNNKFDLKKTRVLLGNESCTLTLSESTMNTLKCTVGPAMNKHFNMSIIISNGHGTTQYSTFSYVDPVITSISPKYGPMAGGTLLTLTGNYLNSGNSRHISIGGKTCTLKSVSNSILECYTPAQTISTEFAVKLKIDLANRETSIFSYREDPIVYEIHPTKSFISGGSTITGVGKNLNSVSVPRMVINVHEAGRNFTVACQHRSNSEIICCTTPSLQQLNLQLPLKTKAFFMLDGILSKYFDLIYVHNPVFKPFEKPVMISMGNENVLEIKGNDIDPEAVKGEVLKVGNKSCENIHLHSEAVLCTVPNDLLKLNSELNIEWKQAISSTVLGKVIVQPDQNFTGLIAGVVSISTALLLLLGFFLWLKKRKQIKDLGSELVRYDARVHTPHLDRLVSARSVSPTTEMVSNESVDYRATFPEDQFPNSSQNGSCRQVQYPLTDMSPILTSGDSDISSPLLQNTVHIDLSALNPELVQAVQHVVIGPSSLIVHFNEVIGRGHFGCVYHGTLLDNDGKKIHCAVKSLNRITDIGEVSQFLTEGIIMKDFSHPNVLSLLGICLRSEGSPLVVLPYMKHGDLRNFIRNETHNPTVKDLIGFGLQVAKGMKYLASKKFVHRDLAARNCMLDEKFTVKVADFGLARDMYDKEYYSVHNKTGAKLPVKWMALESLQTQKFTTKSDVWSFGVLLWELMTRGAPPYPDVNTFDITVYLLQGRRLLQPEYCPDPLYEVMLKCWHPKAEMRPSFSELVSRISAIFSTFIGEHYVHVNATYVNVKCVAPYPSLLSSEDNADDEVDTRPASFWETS

[18] = Phase I/II trial, safety; assay type: in vivo
[19] = Phase I/II trial, plasma pharmacokinetics; assay type: in vivo, human
[20] = system: ALK-positive NSCLC; experiment: Phase I/II trial, antitumor activity; assay type: in vivo, human
[21] = system: ALK-positive lung cancer cell lines; details: cited from earlier work
[22] = system: ALK fusions engineered to have point mutation L1196M; details: mutation associated with crizotinib resistance; cited from earlier work
[23] = system: ALK fusions engineered to have point mutation C1156Y; details: mutation associated with crizotinib resistance; cited from earlier work
[24] = system: H3122 lung cancer xenografts (EML4-ALK E13;A20 fusion); details: cited from earlier work
[25] = ALK-positive efficacy evaluable patients, ≥200 mg, n=60
[26] = patients with baseline CNS target lesions, n=14, ≥200 mg
[27] = prior crizotinib and at least one second-generation ALK TKI, n=16

In the case of `COc1cc(N2CCC(N3CCN(C)CC3)CC2)ccc1Nc1ncc(Cl)c(Nc2ccccc2P(C)(C)=O)n1` [brigatinib], the RR [1] is listed as 54%, the “median PFS” value [1] is listed as 12.9 months and the “patients who experienced diarrhea” value [2] is listed as 41%.
For `Cc1cc(Nc2ncc(Cl)c(Nc3ccccc3S(=O)(=O)C(C)C)n2)c(OC(C)C)cc1C1CCNCC1` [ceritinib], the patients discontinuing therapy [3] is listed as 10%, the “patients who experienced a SAE” value [3] is listed as 38% and the “patients with a dose interruption” value [3] is listed as 66%. For the same compound, the RR ([3]; first line) was 73%, the intracranial response ([3]; first line) was 57% and the “median PFS” value ([3]; first line) was 16.6 months. For the same compound, the patients with vomiting [2] was “majority of patients” and the “patients who experienced diarrhea” value [2] was 75%.
Compound `C[C@@H]1CN(C(=O)c2ccc(NC(=O)c3cc(O[C@H](C)c4c(Cl)ccc(F)c4Cl)c(N)nn3)cc2)C[C@H](C)N1` [ensartinib] has an IC50 [4] of under 0.4 nM, an IC50 [5] of under 4 nM and an IC50 [6] of under 0.4 nM. It also gave an IC50 [7] of under 0.4 nM, an IC50 [8] of under 0.4 nM and an IC50 [9] of under 0.4 nM. The IC50 [10] was under 0.4 nM, the IC50 [11] was under 1 nM and the IC50 [12] was under 1 nM. The IC50 [13] was under 1 nM, the IC50 [14] was 1 to 10 nM and the IC50 [15] was 1 to 10 nM. The IC50 [16] was 1 to 10 nM, the IC50 [17] was 1 to 10 nM and the maximum tolerated dose ([18]; 25-250 mg once daily) was “not reached”. The “deaths related to ensartinib” value ([18]; as considered by the sponsor) was “no deaths”, the “Constipation, All grades” value ([18]; human, in vivo) was 11 (11%) and the “Constipation, Grade ≥3” value ([18]; human, in vivo) was 0. For the same compound, the “Decreased Appetite, All grades” value ([18]; human, in vivo) was 18 (19%), the “Decreased Appetite, Grade ≥3” value ([18]; human, in vivo) was 1 (1%) and the “Diarrhea, All grades” value ([18]; human, in vivo) was 11 (11%). For the same compound, the “Diarrhea, Grade ≥3” value ([18]; human, in vivo) was 0, the “Dry Skin, All grades” value ([18]; human, in vivo) was 14 (14%) and the “Dry Skin, Grade ≥3” value ([18]; human, in vivo) was 1 (1%). The “Edema, All grades” value ([18]; human, in vivo) was 15 (15%), the “Edema, Grade ≥3” value ([18]; human, in vivo) was 1 (1%) and the “Elevated aspartate aminotransferase, All grades” value ([18]; human, in vivo) was 12 (12%). For the same compound, the “Elevated aspartate aminotransferase, Grade ≥3” value ([18]; human, in vivo) was 1 (1%), the “Fatigue, All grades” value ([18]; human, in vivo) was 21 (22%) and the “Fatigue, Grade ≥3” value ([18]; human, in vivo) was 2 (2%). The “Nausea, All grades” value ([18]; human, in vivo) was 35 (36%), the “Nausea, Grade ≥3” value ([18]; human, in vivo) was 1 (1%) and the “Pruritus, All grades” value ([18]; human, in vivo) was 27 (28%). For the same compound, the “Pruritus, Grade ≥3” value ([18]; human, in vivo) was 5 (5%), the “Rash, All grades” value ([18]; human, in vivo) was 54 (56%) and the “Rash, Grade ≥3” value ([18]; human, in vivo) was 12 (12%). For the same compound, the “Vomiting, All grades” value ([18]; human, in vivo) was 25 (26%), the “Vomiting, Grade ≥3” value ([18]; human, in vivo) was 1 (1%) and the drug-related diarrhea ([18]; human, in vivo) was 11%. The “patients permanently discontinued due to related toxicity” value ([18]; human, in vivo) was 5.2%, the “patients requiring at least one dose reduction due to treatment-related toxicity” value ([18]; human, in vivo) was 25% and the “patients with treatment-related Grade 3-4 AEs” value ([18]; human, in vivo) was 23%. It also gave a treatment-related fatigue ([18]; human, in vivo) of 22%, a treatment-related nausea ([18]; human, in vivo) of 36% and a treatment-related pruritus ([18]; human, in vivo) of 28%. The treatment-related vomiting ([18]; human, in vivo) was 26%, the “recommended phase II dose (RP2D)” value ([18]; human, in vivo, 28 days) was 225 mg and the “patients who died while on study” value ([18]; n=97) was “Five”. The “impact of food on absorption” value ([19]; 225 mg, food consumed within 30 minutes after taking ensartinib) was “minimal impact”, the “increase in mean day 22 AUC from 225 to 250 mg” value ([19]; fasted, 11% increase in dose) was 36% and the “dose proportionality of mean day 22 Cmax and AUC” value (“dose proportionality” for short) ([19]; fasted, 200-225 mg) was “slightly more than dose proportionally”. The “dose proportionality” value ([19]; fasted, 225-250 mg) was “significantly more than dose proportionally”, the “dose proportionality” value ([19]; human, in vivo) was “increased dose proportionally” and the “median DOR” value ([20]; ALK TKI naïve patients, n=12) was 24.4 months. The “median PFS” value ([20]; ALK TKI-naïve patients) was 26.2 months, the “disease control rate (DCR)” value ([20]; ALK TKI-naïve patients, n=15) was 86.7% and the “response rate (RR)” value ([20]; ALK TKI-naïve patients, n=15) was 80%. The “disease control rate (DCR)” value [20, 25] was 81.7%, the “patients with tumor regression” value [20, 25] was 80% and the “median DOR” value ([20]; ALK-positive evaluable patients, n=35) was 12.8 months. The “median PFS” value ([20]; ALK-positive evaluable patients, ≥200 mg) was 9.2 months, the “median DOR” value ([20]; crizotinib and a second-generation ALK TKI, n=4) was 4.4 months and the “intracranial DCR” value [20, 26] was 92.9%. The intracranial response rate [20, 26] was 64% and 64.3%, the “patients with intracranial tumor regression” value [20, 26] was 78.6% and the “disease control rate (DCR)” value [20, 27] was 50.0%. The “response rate (RR)” value [20, 27] was 25%, the “median PFS” value ([20]; prior crizotinib only) was 9.0 months and the “median DOR” value ([20]; prior crizotinib only, n=19) was 7.4 months. The “disease control rate (DCR)” value ([20]; prior crizotinib only, n=29) was 96.6%, the “response rate (RR)” value ([20]; prior crizotinib only, n=29) was 69% and the “median intracranial DOR” value ([20]; responding patients with CNS target lesions at baseline, n=9, ≥200 mg) was 5.7 months. The “potency relative to crizotinib at inhibiting growth” value [21] was 10 fold, the “inhibition of ALK fusion with L1196M” value [22] was “potently inhibited” and the “inhibition of ALK fusion with C1156Y” value [23] was “potently inhibited”. The “antitumor activity in xenografts” value [24] was “potent antitumor activity”.
